From publication PMC10381909, “Secondary Metabolites from the Cultures of Medicinal Mushroom Vanderbylia robiniophila and Their Tyrosinase Inhibitory Activities” (Journal of Fungi, 2023)

Legend:
Aβ1–42 = test system: Aβ1–42; parameters: method as in PMID 31520649; conditions: pair of enantiomeric compounds from corn silk; cited from earlier work
HeLa cells = test system: HeLa cells; parameters: method as in PMID 21747753, PMID 21673896, PMID 31671793; conditions: obtained from marine-derived fungi; cited from earlier work
tyrosinase = tyrosinase (Agaricus bisporus, UniProt C7FF04); assay: Enzyme kinetic analysis (V-S curve, Lineweaver–Burk plot, secondary replot); assay type: biochemical
Description: The inhibition type was measured by the reaction rate–substrate concentration curve and the Lineweaver–Burk plot. L-tyrosine solutions were diluted to different concentrations (5 mM, 7.5 mM, 9 mM, 12 mM, 15 mM) as the substate. The inhibition constant was determined by the second plot of the y-intercept versus the concentration of the inhibitor. The values of Kis were calculated from the following formula: y-intercept=1/Vm1+[I]/Kis
The inhibition constant Kis was obtained from the plot of the y-intercept versus the concentration of 10, which was calculated to be 0.04 mM (Figure 5C).

Sequence of tyrosinase (C7FF04 1-392): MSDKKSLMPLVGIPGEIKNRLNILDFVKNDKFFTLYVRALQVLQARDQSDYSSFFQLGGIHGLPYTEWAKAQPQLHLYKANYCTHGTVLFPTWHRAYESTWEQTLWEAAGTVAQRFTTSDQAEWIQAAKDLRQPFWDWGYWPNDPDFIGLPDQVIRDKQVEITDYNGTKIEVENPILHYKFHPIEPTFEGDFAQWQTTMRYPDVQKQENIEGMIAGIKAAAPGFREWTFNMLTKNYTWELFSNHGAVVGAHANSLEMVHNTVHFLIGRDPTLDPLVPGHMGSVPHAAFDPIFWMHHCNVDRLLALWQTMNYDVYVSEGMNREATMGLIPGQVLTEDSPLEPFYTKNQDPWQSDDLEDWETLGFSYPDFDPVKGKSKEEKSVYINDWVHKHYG

| SMILES | anti-Aβ1–42 aggregation activity (Aβ1–42) | cytotoxic activity against HeLa cells (HeLa cells) | inhibition type on tyrosinase (tyrosinase; L-tyrosine 5–15 mM, Lineweaver–Burk plot) | change of Km and Vm with increasing inhibitor concentration (tyrosinase; ratio Km/Vm remained unchanged) |
| --- | --- | --- | --- | --- |
| COC(=O)CCCCCCC[C@H]1C=CC(=O)O1 [Compound 9, Cornilkone C] | weak | – | – | – |
| COC(=O)C(=O)c1c[nH]c2ccccc12 [Compound 10, (1H-indol-3-yl) oxoacetic acid methyl ester] | – | weak | uncompetitive inhibitor | decreased |
